Data from patent US9073855B2, “BCL-2 selective apoptosis-inducing agents for the treatment of cancer and immune diseases” (AbbVie Inc., priority 2008, dated 2015).

What was measured:
GST-Bcl-2 = GST-Bcl-2 (Homo sapiens, UniProt P10415); experiment: TR-FRET binding assay, GST-Bcl-2 with F-Bak peptide probe; settings: TR-FRET Binding Affinity, GST-Bcl-2, F-Bak peptide probe
Outline: (§1)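 Competitive TR-FRET: GST-fusion protein, fluorescent Bak peptide probe and Tb-labelled anti-GST antibody incubated with compound dilution series (starting 50 μM as 2× stock, 10% DMSO) for 3 h at RT. Excitation 340/35 nm; Ki derived via Wang's exact competitive-binding equation.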

GST-Bcl-XL = GST-Bcl-XL (Homo sapiens, UniProt Q07817); experiment: TR-FRET binding assay, GST-Bcl-XL with F-Bak peptide probe; settings: TR-FRET Binding Affinity, GST-Bcl-XL, F-Bak peptide probe
Outline: as §1

FL5.12/Bcl-2 cells = experiment: FL5.12/Bcl-2 cell viability assay under IL-3 withdrawal (CellTitre Glo); format: cell-based, murine; settings: Mus musculus, IL-3 withdrawn 48 hrs, then 24 hrs with compound
Outline: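 Murine IL-3-dependent FL5.12 cells stably overexpressing Bcl-2 were deprived of IL-3 (WEHI-3B conditioned medium omitted) for 48 hrs, then exposed to various compound concentrations for a further 24 hrs at 37° C, 5% CO2. Viability was read by CellTitre Glo luminescence.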

GST-Bcl-XL, sequence (Q07817 whole entry): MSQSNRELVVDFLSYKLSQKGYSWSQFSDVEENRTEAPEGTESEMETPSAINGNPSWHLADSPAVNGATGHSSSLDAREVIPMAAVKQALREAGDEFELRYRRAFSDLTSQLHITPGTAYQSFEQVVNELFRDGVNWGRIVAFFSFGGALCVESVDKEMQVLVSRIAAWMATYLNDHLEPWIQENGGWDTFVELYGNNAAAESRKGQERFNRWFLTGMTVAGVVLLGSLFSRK
GST-Bcl-2, sequence (P10415 whole entry, the tested form may be a part): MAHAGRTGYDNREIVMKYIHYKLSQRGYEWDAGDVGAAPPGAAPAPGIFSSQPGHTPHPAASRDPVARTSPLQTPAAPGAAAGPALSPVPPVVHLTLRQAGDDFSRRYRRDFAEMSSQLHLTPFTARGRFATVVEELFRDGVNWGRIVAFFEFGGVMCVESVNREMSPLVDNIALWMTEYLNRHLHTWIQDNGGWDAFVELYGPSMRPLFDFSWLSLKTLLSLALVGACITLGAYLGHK

| Compound | Ki (GST-Bcl-2) [nM] | Ki (GST-Bcl-XL) [nM] | EC50 (FL5.12/Bcl-2 cells) [nM] |
| --- | --- | --- | --- |
| C[C@H](c1ccccc1-c1ccc(Cl)cc1)N1CCN(c2ccc(C(=O)NS(=O)(=O)c3ccc(NCC4CCOCC4)c([N+](=O)[O-])c3)c(Oc3cccc4[nH]ccc34)c2)CC1 [Example 255, 4-{4-[(1R)-1-(4′-chloro-1,1′-biphenyl-2-yl)ethyl]piperazin-1-yl}-2-(1H-indol-4-yloxy)-N-({3-nitro-4-[(tetrahydro-2H-pyran-4-ylmethyl)amino]phenyl}sulfonyl)benzamide] | 7.83 | > 660 | > 500 |
| CC1(C)CCC(CN2CCN(c3ccc(C(=O)NS(=O)(=O)c4ccc(NCC(F)(F)F)c([N+](=O)[O-])c4)c(Oc4ccc5[nH]ccc5c4)c3)CC2)=C(c2ccc(Cl)cc2)C1 [Example 344, 4-(4-{[2-(4-chlorophenyl)-4,4-dimethylcyclohex-1-en-1-yl]methyl}piperazin-1-yl)-2-(1H-indol-5-yloxy)-N-({3-nitro-4-[(2,2,2-trifluoroethyl)amino]phenyl}sulfonyl)benzamide] | 0.284 | 447 | 71.5 |
| CO[C@H]1CC[C@H](CNc2ccc(S(=O)(=O)NC(=O)c3ccc(N4CCN(CC5=C(c6ccc(Cl)cc6)CC(C)(C)CC5)CC4)cc3Oc3ccc4[nH]ccc4c3)cc2[N+](=O)[O-])CC1 [Example 311, Trans-4-(4-{[2-(4-chlorophenyl)-4,4-dimethylcyclohex-1-en-1-yl]methyl}piperazin-1-yl)-2-(1H-indol-5-yloxy)-N-[(4-{[(4-methoxycyclohexyl)methyl]amino}-3-nitrophenyl)sulfonyl]benzamide] | 0.26 | > 660 | 33.4 |
| CC1(C)CCC(CN2CCN(c3ccc(C(=O)NS(=O)(=O)c4ccc(NC5CCN(C6Cc7ccccc7C6)CC5)c([N+](=O)[O-])c4)c(Oc4ccc5[nH]ccc5c4)c3)CC2)=C(c2ccc(Cl)cc2)C1 [Example 228, 4-(4-{[2-(4-chlorophenyl)-4,4-dimethylcyclohex-1-en-1-yl]methyl}piperazin-1-yl)-N-[(4-{[1-(2,3-dihydro-1H-inden-2-yl)piperidin-4-yl]amino}-3-nitrophenyl)sulfonyl]-2-(1H-indol-5-yloxy)benzamide] | 4.67 | > 660 | > 500 |
| CC1(C)CCC(CN2CCN(c3ccc(C(=O)NS(=O)(=O)c4ccc(NC5CCCCC5N)c([N+](=O)[O-])c4)c(Oc4ccc5[nH]ccc5c4)c3)CC2)=C(c2ccc(Cl)cc2)C1 (stereo not drawn) [Example 208, N-({4-[(2-aminocyclohexyl)amino]-3-nitrophenyl}sulfonyl)-4-(4-{[2-(4-chlorophenyl)-4,4-dimethylcyclohex-1-en-1-yl]methyl}piperazin-1-yl)-2-(1H-indol-5-yloxy)benzamide] | 0.589 | > 660 | 264 |
| CC1(C)CCC(CN2CCN(c3ccc(C(=O)NS(=O)(=O)c4ccc(OC[C@H]5COCCO5)c([N+](=O)[O-])c4)c(Oc4ccc5[nH]ccc5c4)c3)CC2)=C(c2ccc(Cl)cc2)C1 [Example 346, 4-(4-{[2-(4-chlorophenyl)-4,4-dimethylcyclohex-1-en-1-yl]methyl}piperazin-1-yl)-N-({4-[(2R)-1,4-dioxan-2-ylmethoxy]-3-nitrophenyl}sulfonyl)-2-(1H-indol-5-yloxy)benzamide] | 0.018 | 204 | 17.5 |
| CC1(C)CCC(CN2CCN(c3ccc(C(=O)NS(=O)(=O)c4ccc(OCCC5CCOCC5)c([N+](=O)[O-])c4)c(Oc4cccc5[nH]ccc45)c3)CC2)=C(c2ccc(Cl)cc2)C1 [Example 314, 4-(4-{[2-(4-chlorophenyl)-4,4-dimethylcyclohex-1-en-1-yl]methyl}piperazin-1-yl)-2-(1H-indol-4-yloxy)-N-{[3-nitro-4-(2-tetrahydro-2H-pyran-4-ylethoxy)phenyl]sulfonyl}benzamide] | 3.07 | > 660 | 240 |
| CN1CCC(COc2ccc(S(=O)(=O)NC(=O)c3ccc(N4CCN(CC5=C(c6ccc(Cl)cc6)CC(C)(C)CC5)CC4)cc3Oc3ccc4[nH]ccc4c3)cc2[N+](=O)[O-])CC1 [Example 354, 4-(4-{[2-(4-chlorophenyl)-4,4-dimethylcyclohex-1-en-1-yl]methyl}piperazin-1-yl)-2-(1H-indol-5-yloxy)-N-({4-[(1-methylpiperidin-4-yl)methoxy]-3-nitrophenyl}sulfonyl)benzamide] | 0.036 | 5.41 | 5.6 |
| CC1(C)CCC(CN2CCN(c3ccc(C(=O)NS(=O)(=O)c4cnc(NCC5CCOCC5)c(Br)c4)c(Oc4cccc5[nH]ccc45)c3)CC2)=C(c2ccc(Cl)cc2)C1 [Example 325, N-({5-bromo-6-[(tetrahydro-2H-pyran-4-ylmethyl)amino]pyridin-3-yl}sulfonyl)-4-(4-{[2-(4-chlorophenyl)-4,4-dimethylcyclohex-1-en-1-yl]methyl}piperazin-1-yl)-2-(1H-indol-4-yloxy)benzamide] | 2.33 | > 660 | 256 |
| O=C(NS(=O)(=O)c1ccc(NCC2CCOCC2)c([N+](=O)[O-])c1)c1ccc(N2CCN(CC3=C(c4ccc(Cl)cc4)CCC(N4CCCC4)C3)CC2)cc1Oc1ccc2[nH]ccc2c1 (stereo not drawn) [Example 272, 4-(4-{[2-(4-chlorophenyl)-5-pyrrolidin-1-ylcyclohex-1-en-1-yl]methyl}piperazin-1-yl)-2-(1H-indol-5-yloxy)-N-({3-nitro-4-[(tetrahydro-2H-pyran-4-ylmethyl)amino]phenyl}sulfonyl)benzamide] | 0.011 | > 660 | 194 |
| COCCN1CCC(Nc2ccc(S(=O)(=O)NC(=O)c3ccc(N4CCN(CC5=C(c6ccc(Cl)cc6)CC(C)(C)CC5)CC4)cc3Oc3cccc4[nH]ccc34)cc2[N+](=O)[O-])CC1 [Example 194, 4-(4-{[2-(4-chlorophenyl)-4,4-dimethylcyclohex-1-en-1-yl]methyl}piperazin-1-yl)-2-(1H-indol-4-yloxy)-N-[(4-{[1-(2-methoxyethyl)piperidin-4-yl]amino}-3-nitrophenyl)sulfonyl]benzamide] | 0.151 | 32 | 27 |
| CC1(C)CCC(CN2CCN(c3ccc(C(=O)NS(=O)(=O)c4ccc(NCCC(F)(F)F)c([N+](=O)[O-])c4)c(Oc4ccc5[nH]ccc5c4)c3)CC2)=C(c2ccc(Cl)cc2)C1 [Example 324, 4-(4-{[2-(4-chlorophenyl)-4,4-dimethylcyclohex-1-en-1-yl]methyl}piperazin-1-yl)-2-(1H-indol-5-yloxy)-N-({3-nitro-4-[(3,3,3-trifluoropropyl)amino]phenyl}sulfonyl)benzamide] | 1.48 | > 660 | 134 |
| CC1(C)CCC(CN2CCN(c3ccc(C(=O)NS(=O)(=O)c4cnc(OCC5(F)CCOCC5)c(C#N)c4)c(Oc4ccc5[nH]ccc5c4)c3)CC2)=C(c2ccc(Cl)cc2)C1 [Example 385, 4-(4-{[2-(4-chlorophenyl)-4,4-dimethylcyclohex-1-en-1-yl]methyl}piperazin-1-yl)-N-({5-cyano-6-[(4-fluorotetrahydro-2H-pyran-4-yl)methoxy]pyridin-3-yl}sulfonyl)-2-(1H-indol-5-yloxy)benzamide] | 0.062 | 130 | 56.4 |
